For this experiment, the system named is POL (peroxidase of sycamore fig latex). The experiment in a line: spectrophotometric peroxidase assay, substrate variation. It is filed as biochemical, Ficus sycomorus. As to conditions: co-substrate H2O2, free enzyme, standard assay pH 5.5, room temperature (28-30°C). The text has this:
spectrophotometric peroxidase assay, substrate variation on POL (peroxidase of sycamore fig latex)

The text below walks through data of PMC6247892, “Ficus sycomorus latex: An efficient alternative Egyptian source for horseradish peroxidase in labeling with antibodies for immunodiagnostic kits” (Veterinary World, 2018).

Counter-ions that a name gives are not always drawn. Like-named read-outs stand apart in the source and are kept apart here.

With `Cc1cc(-c2cc(C)c(N)c(C)c2)cc(C)c1N` [3,3`,5,5`tetramethylbenzidine], where the note is “read-out: Km (mM substrates) / TMB”, the Km came to 7 ± 0.8 mM. For `Oc1ccc(Cl)c2ccccc12` [4-chloro-1-naphthol], the Km (read-out: Km (mM substrates) / 4C-1N) was found to be 5 ± 0.6 mM. As for `CCn1c(=NN=c2sc3cc(S(=O)(=O)O)ccc3n2CC)sc2cc(S(=O)(=O)O)ccc21` [ABTS], where the note is “read-out: Km (mM substrates) / ABTS”, the Km came to 4.5 ± 0.5 mM.

Regarding `Nc1ccccc1N` [o-phenylenediamine dihydrochloride], under “read-out: Km (mM substrates) / OPD”, the Km was 5.8 ± 0.4 mM.
